Assays:
[1] = molecular target: Epidermal growth factor receptor (Homo sapiens, UniProt P00533); experiment: WT-EGFR Kinase Assay
Procedure: For the assay 50 nl of a 100 fold concentrated solution of the test compound in DMSO was pipetted into either a black low volume 384 well microtiter plate or a black 1536 well microtiter plate (both Greiner Bio-One, Frickenhausen, Germany), 2 μL of a solution of EGFR in aqueous assay buffer [50 mM Hepes pH 7.0, 10 mM MgCl2, 1 mM dithiothreitol, 0.5 mM EGTA, 0.3 mM activated sodium ortho-vanadate, 0.005% (w/v) bovine serum albumin, 0.005% (v/v) Tween-20] were added and the mixture was incubated for 15 min at 22° C. to allow pre-binding of the test compounds to the enzyme before the start of the kinase reaction. […] The concentration of EGFR was adjusted depending of the activity of the enzyme lot and was chosen appropriate to have the assay in the linear range, typical concentration was […]. The reaction was stopped by the addition of 3 μL of a solution of HTRF detection reagents (83.3 nM streptavidine-XL665 [Cisbio Bioassays, Codolet, France] and 1.67 nM PT66-Tb-Cryptate, a terbium-cryptate labelled anti-phospho-tyrosine antibody from Cisbio Bioassays [instead of the PT66-Tb-cryptate PT66-Eu-Chelate from Perkin Elmer can also be used]) in an aqueous EDTA-solution (133.3 mM EDTA, 0.2% (w/v) bovine serum albumin in 50 mM HEPES pH 7.5).

[2] = molecular target: T1, Casein kinase I isoform alpha (Homo sapiens, UniProt P48729); experiment: CSNK1A1 High ATP Assay
T1 sequence (P48729 whole entry, the tested form may be a part, canonical isoform): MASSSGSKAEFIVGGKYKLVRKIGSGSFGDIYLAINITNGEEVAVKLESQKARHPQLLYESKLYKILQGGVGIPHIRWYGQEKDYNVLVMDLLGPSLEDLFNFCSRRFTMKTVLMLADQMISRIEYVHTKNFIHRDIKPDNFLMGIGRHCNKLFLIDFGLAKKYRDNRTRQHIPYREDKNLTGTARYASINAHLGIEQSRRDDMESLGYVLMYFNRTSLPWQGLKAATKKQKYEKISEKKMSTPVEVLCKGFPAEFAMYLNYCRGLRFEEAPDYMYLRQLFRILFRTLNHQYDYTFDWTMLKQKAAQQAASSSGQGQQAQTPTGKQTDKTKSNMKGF
Source text: Recombinant fusion protein of N-terminal Glutathion-S-Transferase (GST) and full-length human CSNK1A1, expressed by baculovirus infected insect cells and purified via Glutathion affinity chromatography, was purchased from Life Technologies (product no. PV4174) and used as enzyme. As substrate for the kinase reaction the biotinylated peptide biotin-Ahx-KRRRAL-pS-VASLPGL (C-terminus in amide form) was used which can be purchased e.g. from the company Biosyntan (Berlin-Buch, Germany).[2164]For the assay 50 nl of a 100 fold concentrated solution of the test compound in DMSO was pipetted into a white low volume 384-well microtiter plate (Greiner Bio-One, Frickenhausen, Germany), 2 μL of a solution of CSNK1A1 in aqueous assay buffer [50 mM HEPES pH 7.5, 10% (v/v) glycerol, 10 mM MgCl2, 50 mM NaCl, 1 mM dithiothreitol, 0.01% (w/v) bovine serum albumin, 0.01% (v/v) Triton X-100] were added and the mixture was incubated for 15 min at 22° C. to allow pre-binding of the test compounds to the enzyme before the start of the kinase reaction. […] The concentration of CSNK1A1 was adjusted depending of the activity of the enzyme lot and was chosen appropriate to have the assay in the linear range, a typical concentration is about 0.4 ng/μL. The reaction was stopped by the addition of 2.5 μL of ADP-Glo-reagent (1:1.5 fold diluted with water) and the resulting mixture was incubated at 22° C. for 1 h to convert the ATP not consumed in the kinase reaction completely […]. Subsequently 2.5 μL of the kinase detection reagent (1.2 fold more concentrated than recommended by the producer) were added, the resulting mixture was incubated at 22° C. for 1 h and then the luminescence measured with a suitable measurement instrument (e.g. Viewlux™ from Perkin-Elmer). The amount of emitted light was taken as a measure for the amount of ADP generated and thereby for the activity of the CSNK1A1.

[3] = molecular target: T1, Casein kinase I isoform alpha; experiment: CSNK1A1 1uM ATP Assay
Procedure: The concentration of CSNK1A1 was adjusted depending of the activity of the enzyme lot and was chosen appropriate to have the assay in the linear range, a typical concentration is about 0.4 ng/μL. The reaction was stopped by the addition of 2.5 μL of ADP-Glo-reagent (1:1.5 fold diluted with water) and the resulting mixture was incubated at 22° C. for 1 h to convert the ATP not consumed in the kinase reaction completely to […]. […] The amount of emitted light was taken as a measure for the amount of ADP generated and thereby for the activity of the CSNK1A1.

[4] = molecular target: Casein kinase I isoform delta (Homo sapiens, UniProt P48730); experiment: CSNK1D Assay
Chain of Casein kinase I isoform delta (P48730 whole entry, canonical isoform): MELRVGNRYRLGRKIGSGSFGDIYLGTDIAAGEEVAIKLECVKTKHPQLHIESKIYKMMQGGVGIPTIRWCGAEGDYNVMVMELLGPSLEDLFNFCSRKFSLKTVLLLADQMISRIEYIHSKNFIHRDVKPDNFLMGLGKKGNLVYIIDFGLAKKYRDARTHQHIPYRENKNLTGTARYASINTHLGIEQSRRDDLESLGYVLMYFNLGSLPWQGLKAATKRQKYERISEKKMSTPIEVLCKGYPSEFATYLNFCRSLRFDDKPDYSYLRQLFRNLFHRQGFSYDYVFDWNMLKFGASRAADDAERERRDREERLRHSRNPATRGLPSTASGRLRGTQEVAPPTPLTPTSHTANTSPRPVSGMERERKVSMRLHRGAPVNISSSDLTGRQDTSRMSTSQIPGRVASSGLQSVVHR
Procedure: As substrate for the kinase reaction the biotinylated peptide Btn-Ahx-[…] […] The concentration of CSNK1D was adjusted depending of the activity of the enzyme lot and was chosen appropriate to have the assay in the linear range, a typical concentration is about 0.5 ng/μL. The reaction was stopped by the addition of 2.5 μL of “ADP-Glo-reagent” (1:1.5 fold diluted with water) and the resulting mixture was incubated at 22° C. for 1 h to convert the ATP not consumed in the kinase reaction completely to […]. […] The amount of emitted light was taken as a measure for the amount of ADP generated and thereby for the activity of the CSNK1D.

Chain of Epidermal growth factor receptor (P00533 whole entry): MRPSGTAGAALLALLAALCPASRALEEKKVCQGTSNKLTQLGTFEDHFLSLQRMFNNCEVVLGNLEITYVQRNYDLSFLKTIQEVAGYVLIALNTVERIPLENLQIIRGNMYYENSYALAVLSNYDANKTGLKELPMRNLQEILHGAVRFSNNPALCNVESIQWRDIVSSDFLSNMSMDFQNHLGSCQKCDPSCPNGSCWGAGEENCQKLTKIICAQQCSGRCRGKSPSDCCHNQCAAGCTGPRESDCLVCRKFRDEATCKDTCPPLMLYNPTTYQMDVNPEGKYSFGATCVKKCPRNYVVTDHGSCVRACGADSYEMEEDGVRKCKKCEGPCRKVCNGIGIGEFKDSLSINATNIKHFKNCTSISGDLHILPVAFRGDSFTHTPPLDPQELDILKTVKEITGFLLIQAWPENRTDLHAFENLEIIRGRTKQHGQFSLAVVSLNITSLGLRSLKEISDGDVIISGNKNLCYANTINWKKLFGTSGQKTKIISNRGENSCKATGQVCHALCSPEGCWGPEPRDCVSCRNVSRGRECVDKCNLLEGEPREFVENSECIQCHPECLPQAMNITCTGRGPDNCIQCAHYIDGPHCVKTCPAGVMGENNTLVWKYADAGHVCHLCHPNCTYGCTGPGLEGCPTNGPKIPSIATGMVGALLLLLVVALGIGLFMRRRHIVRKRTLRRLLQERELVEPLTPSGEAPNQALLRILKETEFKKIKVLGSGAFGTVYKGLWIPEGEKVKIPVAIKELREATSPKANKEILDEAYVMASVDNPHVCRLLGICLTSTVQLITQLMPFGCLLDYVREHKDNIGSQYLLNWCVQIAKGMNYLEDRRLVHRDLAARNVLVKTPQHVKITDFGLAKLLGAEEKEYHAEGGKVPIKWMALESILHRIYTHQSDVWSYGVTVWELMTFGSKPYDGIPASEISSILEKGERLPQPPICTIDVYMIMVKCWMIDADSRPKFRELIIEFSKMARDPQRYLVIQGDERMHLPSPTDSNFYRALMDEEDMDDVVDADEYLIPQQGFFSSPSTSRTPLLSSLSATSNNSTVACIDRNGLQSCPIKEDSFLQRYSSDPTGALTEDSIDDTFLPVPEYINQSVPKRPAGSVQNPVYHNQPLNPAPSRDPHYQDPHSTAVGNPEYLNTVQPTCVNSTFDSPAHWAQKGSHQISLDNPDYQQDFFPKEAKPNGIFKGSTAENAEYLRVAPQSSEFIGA

| SMILES | IC50 [1] [nM] | IC50 [2] [nM] | IC50 [3] [nM] | IC50 [4] [nM] |
| --- | --- | --- | --- | --- |
| CN1CCc2[nH]c(-c3ccnc(NC(=O)[C@H]4C[C@H]4F)c3)c(Nc3ccccc3)c2C1=O (relative stereo; form 2) [US20230322767, Example No. 25 WO 2016/120196] | 321 | 62.5 |  |  |
| CN1CCc2[nH]c(-c3ccnc(NC(=O)[C@H]4C[C@H]4F)c3)c(Nc3ccccc3)c2C1=O (relative stereo; form 1) [US20230322767, Example No. 40 WO 2016/120196] | 85.5 | 24.1 |  |  |
| Cn1ccc2[nH]c(-c3ccnc(NC(=O)Cc4ccc(F)cc4)c3)c(-c3ccccc3)c2c1=O [US20230322767, Example 5] | > 20000 |  | 0.86 | 2.5 |
| CN1CCc2[nH]c(-c3ccnc(NC(=O)C4CC4)c3)c(Nc3ccccc3)c2C1=O | 42.6 | < 3.43 |  |  |
| O=c1[nH]ccc2[nH]c(-c3ccncc3F)c(Nc3ccccc3)c12 [US20230322767, Example No. 16 WO 2016/120196] | 303 | 40.3 |  |  |

— BindingDB's records for patent US20230322767 (Bayer Aktiengesellschaft, 2023)
